{"source": "patent US20240108623A1", "about": "“METHODS OF TREATING CANCER WITH POZIOTINIB” (BOARD OF REGENTS, THE UNIVERSITY OF TEXAS SYSTEM, priority 2021, published 2024)", "experiment_in_all_cases": "Ba/F3 cell drug screening, Cell Titer Glo", "type_in_all_cases": "cell-based", "key": {"[1]": {"molecular_target": "T1, EGFR L747P (Homo sapiens, UniProt P00533, L747P)", "T1 construct": "expressed in transfected cells; host or cells: Ba/F3 (retroviral transduction, pBabe-Puro based vectors)", "settings": "Ba/F3 cells expressing EGFR L747P; 72 hours", "protocol": "(§1) Ba/F3 cell generation, drug screening, and IC50 approximations. Ba/F3 cells were obtained as a gift from Dr. Gordon Mills (MD Anderson Cancer Center), and maintained in RPMI (Sigma) containing 10% FBS, 1% penicillin/streptomycin, and 10 ng/ml recombinant mIL-3 (R&D Biosystems). To establish stable Ba/F3 cell lines, Ba/F3 cells were transduced with retroviruses containing mutant EGFR plasmids for 12-24 hours. Retroviruses were generated using Lipofectamine 2000 (Invitrogen) transfections of Phoenix 293T-ampho cells (Orbigen) with pBabe-Puro based vectors listed below in Table 6. Vectors were generated by GeneScript or Bioinnovatise using parental vectors from Addgene listed below in Table 6.\n(§2) After 48-72 hours of transduction, 2 μg/ml puromycin (Invitrogen) was added to Ba/F3 cell lines in complete RPMI. To select for EGFR positive cell lines, cells were stained with PE-EGFR (Biolegend) and sorted by FACS. After sorting, EGFR positive cells were maintained in RPMI containing 10% FBS, 1% penicillin/streptomycin, and 1 ng/ml EGF to support cell viability. Drug screening was performed as previously described^41,42. Shortly, cells were plated in 384-well plates (Greiner Bio-One) at 2000-3000 cells per well in technical triplicate. Seven different concentrations of TKIs or DMSO vehicle were added to reach a final volume of 40 μL per well. After 72 hours, 11p L of Cell Titer Glo (Promega) was added to each well. Plates were incubated for a minimum of 10 minutes, and bioluminescence was determined using a FLUOstar OPTIMA plate reader (BMG LABTECH). Raw bioluminescence values were normalized to DMSO control treated cells, and values were plotted in GraphPad Prism. Non-linear regressions were used to fit the normalized data with a variable slope, and IC50 values were determined by GraphPad prism by interpolation of concentrations at 50% inhibition. Drug screens were performed in technical triplicate on each plate and either duplicate or triplicate biological replicates. Mutant to WT ratios (Mut/WT) for each drug were calculated by dividing the IC50 values of mutant cell lines by the average IC50 value of Ba/F3 cells expressing WT EGFR supplemented with 10 ng/ml EGF for each drug. Statistical differences between groups were determined by ANOVA as described in the figure legends."}, "[2]": {"molecular_target": "T2, EGFR A767insASV (Homo sapiens, UniProt P00533, DUP767-769)", "T2 construct": "expressed in transfected cells; host or cells: Ba/F3 (retroviral, pBabe-Puro based vector)", "settings": "Ba/F3 cells expressing EGFR A767insASV; 72 hours", "protocol": "as §1, §2"}, "[3]": {"molecular_target": "T3, EGFR Ex19del T790M L718V (Homo sapiens, UniProt P00533, DEL746-750/L718V/T790M)", "T3 construct": "expressed in transfected cells; host or cells: Ba/F3 (retroviral transduction, pBabe-Puro based vectors)", "settings": "Ba/F3 cells expressing EGFR Ex19del T790M L718V; 72 hours", "protocol": "as §1, §2"}, "[4]": {"molecular_target": "T4, EGFR S720P (Homo sapiens, UniProt P00533, S720P)", "T4 construct": "expressed in transfected cells; host or cells: Ba/F3 (retroviral, pBabe-Puro based vector; created by GeneScript from EGFR WT)", "settings": "Ba/F3 cells expressing EGFR S720P; 72 hours", "protocol": "as §1, §2"}, "[5]": {"molecular_target": "T5, EGFR A763insLQEA (Homo sapiens, UniProt P00533, INS763LQEA)", "T5 construct": "expressed in transfected cells; host or cells: Ba/F3 (retroviral, pBabe-Puro based vector)", "settings": "Ba/F3 cells expressing EGFR A763insLQEA; 72 hours", "protocol": "as §1, §2"}, "[6]": {"molecular_target": "T6, EGFR S811F (Homo sapiens, UniProt P00533, S811F)", "T6 construct": "expressed in transfected cells; host or cells: Ba/F3 (retroviral, pBabe-Puro based vector; created by GeneScript from EGFR WT)", "settings": "Ba/F3 cells expressing EGFR S811F; 72 hours", "protocol": "as §1, §2"}, "[7]": {"molecular_target": "T7, EGFR S768I (Homo sapiens, UniProt P00533, S768I)", "T7 construct": "expressed in transfected cells; host or cells: Ba/F3 (retroviral transduction, pBabe-Puro based vectors)", "settings": "Ba/F3 cells expressing EGFR S768I; 72 hours", "protocol": "as §1, §2"}, "[8]": {"molecular_target": "T8, EGFR E709A (Homo sapiens, UniProt P00533, E709A)", "T8 construct": "expressed in transfected cells; host or cells: Ba/F3 (retroviral transduction, pBabe-Puro based vectors)", "settings": "Ba/F3 cells expressing EGFR E709A; 72 hours", "protocol": "as §1, §2"}, "[9]": {"molecular_target": "T9, EGFR N771dupN (Homo sapiens, UniProt P00533, DUP771-771)", "T9 construct": "expressed in transfected cells; host or cells: Ba/F3 (retroviral, pBabe-Puro based vector)", "settings": "Ba/F3 cells expressing EGFR N771dupN; 72 hours", "protocol": "as §1, §2"}, "[10]": {"molecular_target": "T10, EGFR T725M (Homo sapiens, UniProt P00533, T725M)", "T10 construct": "expressed in transfected cells; host or cells: Ba/F3 (retroviral, pBabe-Puro based vector; created by GeneScript from EGFR WT)", "settings": "Ba/F3 cells expressing EGFR T725M; 72 hours", "protocol": "as §1, §2"}, "[11]": {"molecular_target": "T11, EGFR L858R S784F (Homo sapiens, UniProt P00533, L858R/S784F)", "T11 construct": "expressed in transfected cells; host or cells: Ba/F3 (retroviral, pBabe-Puro based vector; created by GeneScript from EGFR L858R)", "settings": "Ba/F3 cells expressing EGFR L858R S784F; 72 hours", "protocol": "as §1, §2"}, "[12]": {"molecular_target": "T12, EGFR L833F (Homo sapiens, UniProt P00533, L833F)", "T12 construct": "expressed in transfected cells; host or cells: Ba/F3 (retroviral, pBabe-Puro based vector)", "settings": "Ba/F3 cells expressing EGFR L833F; 72 hours", "protocol": "as §1, §2"}, "[13]": {"molecular_target": "T13, EGFR L858R/T790M/L718Q (Homo sapiens, UniProt P00533, L718Q/L858R/T790M)", "T13 construct": "expressed in transfected cells; host or cells: Ba/F3 (retroviral transduction, pBabe-Puro based vectors)", "settings": "Ba/F3 cells expressing EGFR L858R/T790M/L718Q; 72 hours", "protocol": "as §1, §2"}, "[14]": {"molecular_target": "T14, EGFR L858R/T790M/C797S (Homo sapiens, UniProt P00533, C797S/L858R/T790M)", "T14 construct": "expressed in transfected cells; host or cells: Ba/F3 (retroviral transduction, pBabe-Puro based vectors)", "settings": "Ba/F3 cells expressing EGFR L858R/T790M/C797S; 72 hours", "protocol": "as §1, §2"}, "[15]": {"molecular_target": "T15, EGFR G719S (Homo sapiens, UniProt P00533, G719S)", "T15 construct": "expressed in transfected cells; host or cells: Ba/F3 (retroviral transduction, pBabe-Puro based vectors)", "settings": "Ba/F3 cells expressing EGFR G719S; 72 hours", "protocol": "as §1, §2"}, "[16]": {"molecular_target": "T16, EGFR A763insFQEA (Homo sapiens, UniProt P00533, INS763FQEA)", "T16 construct": "expressed in transfected cells; host or cells: Ba/F3 (retroviral, pBabe-Puro based vector)", "settings": "Ba/F3 cells expressing EGFR A763insFQEA; 72 hours", "protocol": "as §1, §2"}}}
{"smiles": "C=CC(=O)N1CCC(Oc2cc3c(Nc4ccc(Cl)c(Cl)c4F)ncnc3cc2OC)CC1", "note": "[Poziotinib]", "values": [{"measurement": "Response of Cells Comprising PACC EGFR Mutations to Second-Generation TKIs", "setting": "[1]", "value": 0.1338}, {"measurement": "Response of Cells Comprising Ex20ins EGFR Mutations to Poziotinib", "setting": "[2]", "value": 0.3183}, {"measurement": "Response of Cells Comprising T790M-like-S EGFR Mutations to Second-Generation TKIs", "setting": "[3]", "value": 15.89}, {"measurement": "Response of Cells Comprising Classical-Like EGFR Mutations to Second-Generation TKIs", "setting": "[4]", "value": 0.1814}, {"measurement": "Response of Cells Comprising Classical-Like EGFR Mutations to Second-Generation TKIs", "setting": "[5]", "value": 0.01607}, {"measurement": "Response of Cells Comprising Classical-Like EGFR Mutations to Second-Generation TKIs", "setting": "[6]", "value": 0.2983}, {"measurement": "Response of Cells Comprising PACC EGFR Mutations to Second-Generation TKIs", "setting": "[7]", "value": 4.858}, {"measurement": "Response of Cells Comprising PACC EGFR Mutations to Second-Generation TKIs", "setting": "[8]", "value": 0.02334}, {"measurement": "Response of Cells Comprising Ex20ins EGFR Mutations to Poziotinib", "setting": "[9]", "value": 0.04003}, {"measurement": "Response of Cells Comprising Classical-Like EGFR Mutations to Second-Generation TKIs", "setting": "[10]", "value": 0.003297}, {"measurement": "Response of Cells Comprising Classical-Like EGFR Mutations to Second-Generation TKIs", "setting": "[11]", "value": 0.1185}, {"measurement": "Response of Cells Comprising Classical-Like EGFR Mutations to Second-Generation TKIs", "setting": "[12]", "value": 0.01839}, {"measurement": "Response of Cells Comprising T790M-like-R EGFR Mutations to Second-Generation TKIs", "setting": "[13]", "value": 70.12}, {"measurement": "Response of Cells Comprising T790M-like-R EGFR Mutations to Second-Generation TKIs", "setting": "[14]", "value": 935.3}, {"measurement": "Response of Cells Comprising PACC EGFR Mutations to Second-Generation TKIs", "setting": "[15]", "value": 0.04616}, {"measurement": "Response of Cells Comprising Classical-Like EGFR Mutations to Second-Generation TKIs", "setting": "[16]", "value": 0.06955}]}
